The nature of data set [1]: Oral bioavailability in Sprague-Dawley rat at 5 mg/kg. It counts as ADME, organism-based. Particulars: in vivo.
Data set [2] can be described thus: Volume of distribution at steady state in Sprague-Dawley rat at 0.1 to 1 mg/kg, iv. The format is ADME, organism-based. On the set-up: dose 0.1-1 mg/kg, route intravenous. Particulars: in vivo, read-out: Vdss.
The nature of data set [3]: Permeability from apical to basolateral side in MDCK cells. It counts as ADME, cell-based, Canis lupus familiaris. Particulars: dog, read-out: permeability.
The nature of data set [4]: Oral bioavailability in Balb/C mouse at 5 mg/kg. The format is ADME, organism-based. The note with it: in vivo.
A short description of data set [5]: Volume of distribution at steady state in Balb/C mouse at 0.5 mg/kg, iv. It counts as ADME, organism-based. On the set-up: dose 0.5 mg/kg, route intravenous. The note with it: in vivo, read-out: Vdss.

As to `CNc1ccn2ncc(C(=O)Nc3cc(C)nn3-c3cccc(Cl)c3)c2n1`, the bioavailability in data set [1] is 30%. The Vd in data set [2] was found to be 0.843 L/kg. The Papp A→B in data set [3] was found to be 15.1 ×10⁻⁶ cm/s.
For the compound `Cn1cc(NC(=O)c2cnn3ccc(N)nc23)c(-c2cccc(Cl)c2)n1`, the bioavailability in data set [1] came out at 7%. The Vd in data set [2] came to 0.355 L/kg.
As to `Cc1cc(NC(=O)c2cnn3ccc(N)nc23)n(-c2cccc(Cl)c2)n1`, the values for the bioavailability in data set [4] and in data set [1] were 8.6% and 1%, respectively. Besides, the Vd amounted to 0.27 L/kg in data set [5] and 0.185 L/kg in data set [2]. In data set [3], the Papp A→B was 8.4 ×10⁻⁶ cm/s.
As to `Cn1cc(NC(=O)c2cnn3ccc(N)nc23)c(-c2cc(Cl)ccc2Cl)n1`, in data set [1], the bioavailability was found to be 63%. Further, the Vd in data set [2] worked out at 1.08 L/kg. In addition, in data set [3], the Papp A→B is 10.5 ×10⁻⁶ cm/s.
With `Cc1cc(NC(=O)c2cnn3cccnc23)n(-c2cccc(Cl)c2)n1`, the bioavailability in data set [1] was 44%. The Vd in data set [2] came out at 0.293 L/kg. Further, the Papp A→B in data set [3] is 10.5 ×10⁻⁶ cm/s.
As for `Cn1cc(NC(=O)c2cnn3cccnc23)c(-c2cccc(Cl)c2)n1`, in data set [1], the bioavailability was 124%. Besides, the Vd in data set [2] amounted to 0.349 L/kg.

These data come from ChEMBL document CHEMBL2176876, “Discovery of potent and selective pyrazolopyrimidine janus kinase 2 inhibitors” (J Med Chem, 2012).
